Target: T1, OCT2 (Homo sapiens, UniProt O15244)
T1 sequence (O15244 1-555): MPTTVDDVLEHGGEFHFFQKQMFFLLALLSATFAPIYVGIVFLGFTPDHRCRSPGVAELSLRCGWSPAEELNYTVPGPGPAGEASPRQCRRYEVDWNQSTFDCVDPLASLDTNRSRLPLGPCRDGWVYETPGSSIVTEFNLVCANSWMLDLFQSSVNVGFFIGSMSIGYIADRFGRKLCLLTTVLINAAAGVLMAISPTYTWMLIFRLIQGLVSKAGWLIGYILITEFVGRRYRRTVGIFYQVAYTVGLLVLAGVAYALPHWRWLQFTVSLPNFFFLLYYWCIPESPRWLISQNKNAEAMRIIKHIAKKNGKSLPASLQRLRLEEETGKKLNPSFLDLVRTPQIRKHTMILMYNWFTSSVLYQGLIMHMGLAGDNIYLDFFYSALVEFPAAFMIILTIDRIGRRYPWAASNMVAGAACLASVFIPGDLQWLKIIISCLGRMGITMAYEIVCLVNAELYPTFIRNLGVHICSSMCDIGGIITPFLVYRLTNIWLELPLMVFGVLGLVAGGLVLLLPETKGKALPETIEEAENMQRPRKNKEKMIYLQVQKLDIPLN
Test: Uptake transporter inhibition assay, OCT2 (metformin)
Method: Uptake experiments were performed using HEK293 cells stably expressing the respective uptake transporters. The assays were conducted according to the actual SOLVO uptake transporter assay protocols (PR-ASY-UPT-General Protocol for Uptake Transporter Inhibition Assays).
Cells were cultured at 37° C. in a humidified atmosphere containing 5% CO2 and were plated onto standard 96-well tissue culture plates.
Before the experiment, the medium was removed, and the cells were washed twice with 100 μL of pre-warmed (37° C.) assay buffer listed in Table 15. The cells were pre-incubated at 37° C. for 30 minutes in assay buffer containing the test article at appropriate concentrations (Table 16), appropriate solvents for solvent controls and the reference inhibitor for reference inhibitor wells. After the pre-incubation step solutions were removed. Uptake experiments were performed at 37° C. in 50 μL of assay buffer containing the probe substrate and the test article or solvent and controls.
After the experiment, cells were washed twice with 100 μL of appropriate cold buffer and lysed with 150 μL scintillation cocktail. Radiolabeled probe substrate transport was determined by liquid scintillation counting.
Uptake of the probe substrate in control cells provided background activity values for all data points.

[1] = 0.04 μM nominal, metformin, IC50 determination, Table 124
[2] = 0.12 μM nominal, metformin, IC50 determination, Table 124
[3] = 1.11 μM nominal, metformin, IC50 determination, Table 124
[4] = 3.00 μM nominal, metformin, Table 123
[5] = 10.00 μM nominal, metformin, IC50 determination, Table 124
[6] = 30.00 μM nominal, metformin, IC50 determination, Table 124
[7] = 30.00 μM nominal, metformin, Table 123

OC1(c2ccc(Cl)cc2)c2ccccc2C2=NCCN21 (centres unmarked) [Compound A, 5-(4-chlorophenyl)-2,3-dihydroimidazo[1,2-b]isoindol-5-ol, reference compound]
IC50: 3.49 µM | Relative transporter specific accumulation [1]: 109.28 ± 6.45 % of control | Transporter specific accumulation [1]: 259.00 ± 13.36 cpm | Relative transporter specific accumulation [2]: 106.33 ± 3.85 % of control | Transporter specific accumulation [2]: 252.00 ± 5.57 cpm | Relative transporter specific accumulation [3]: 84.39 ± 4.06 % of control | Transporter specific accumulation [3]: 200.00 ± 7.72 cpm | Relative transporter specific accumulation [4]: 51.42 ± 3.71 % of control | Transporter specific accumulation [4]: 150.67 ± 6.96 cpm | Relative transporter specific accumulation [5]: 25.88 ± 3.39 % of control | Transporter specific accumulation [5]: 61.33 ± 7.84 cpm | Relative transporter specific accumulation [6]: 9.42 ± 0.99 % of control | Transporter specific accumulation [6]: 22.33 ± 2.26 cpm | Relative transporter specific accumulation [7]: 13.54 ± 1.38 % of control | Transporter specific accumulation [7]: 39.67 ± 3.38 cpm | inhibition at 10 µM (human, Maximum % inhibition, OCT2, HEK293 cells, metformin (10 μM), NIO: no inhibition observed): 91% | inhibition at 0.04 μM (human, Relative Inhibition, 0.04 μM nominal, metformin, IC50 determination, Table 124): -9% | inhibition at 0.12 μM (human, Relative Inhibition, 0.12 μM nominal, metformin, IC50 determination, Table 124): -6% | inhibition at 1.11 μM (human, Relative Inhibition, 1.11 μM nominal, metformin, IC50 determination, Table 124): 16% | inhibition at 10 µM (human, Relative Inhibition, 10.00 μM nominal, metformin, IC50 determination, Table 124): 74% | inhibition at 30 μM (human, Relative Inhibition, 30.00 μM nominal, metformin, IC50 determination, Table 124): 91% | inhibition at 3 μM (human, Relative inhibition, 3.00 μM nominal, metformin, Table 123): 49% | inhibition at 30 μM (human, Relative inhibition, 30.00 μM nominal, metformin, Table 123): 86%
